Data as given in patent US11504428B2, “Photosensitizer and derivatives and application thereof” (DALIAN UNIVERSITY OF TECHNOLOGY, priority 2017, dated 2022).

What was measured:
[1] = UV absorption and fluorescence emission spectra in methanol; type: physicochemical; settings: 5 μM in methanol
Description: (§1) Compounds 1-1 and 1-2 synthesized from embodiment 1 above are added to 3 mL methanol solvent with a final concentration of 5 μM and their UV absorption spectra and fluorescence emission spectra are measured. […] The instruments used are AgIIlent 8453 UV spectrophotometer and AgIIlent Cary EclIIpse fluorescence spectrophotometer.
as §1, with “Benzophenoselenazine photosensitizer 2-1, 2-2,” for “Compounds 1-1 and 1-2”, “2” for “1”, “μM,” for “μM”
Compounds 1-1-IMC and 2-1-IMC synthesized from embodiment 3 above are added to 3 mL methanol solvent with a final concentration of 5 μM. The UV absorption spectra and fluorescence emission spectra are then measured. […] The instruments used are AgIIlent 8453 UV spectrophotometer and AgIIlent Cary EclIIpse fluorescence spectrophotometer.
Compounds 1-1-Biotin synthesized from embodiment 4 above is added to 3 mL methanol solvent with a final concentration of 5 μM, and then the UV absorption spectra and fluorescence emission spectra are detected. […] The instruments used are AgIIlent 8453 UV spectrophotometer and AgIIlent Cary EclIIpse fluorescence spectrophotometer.

[2] = tested on: HepG2 (hepatoma cells); test: In vitro anticancer test (MTT cell viability), dark and 660 nm light, HepG2; type: cell-based
Description: MCF-7 (human breast) cancer cells or HepG2 (liver cancer cell) are incubated on the cell culture plate in DMEM medium supplemented with 10% FBS and 1% penicillin-streptomycin at 37° C. in a humidified, 5% CO2 atmosphere. Then, the MCF-7 cells are seeded in 96 well cell culture plate at density of 5,000 cells per well. After 24 h incubation, 100 μL of 1-1-Biotin at different concentrations (5, 2.5, 1.25, 0.625, 0.32, 0.16, 0.08, 0.04, 0.02 μM) are added into the each well, and cultured for 1 h. Then, the cell medium is replaced with 200 μL fresh medium. For the phototoxicity test, the 96-well plate is irradiated with 660 nm light source for 10 min and then cultured in the above environment for 12 hours. No light irradiation is used as control. Then 20 μL MTT solution with a concentration of 5 mg/mL is added into each well and incubated in the incubator for another 4 hours. The culture medium is then removed and 200 μL DMSO is added to each well, and the plate is gently shaken for 5 min at room temperature. Finally, the absorbance at 490 nm is measured with a Bio-Rad microplate reader and the cell viability is calculated by the following equation: Cell Viability (%)=[Σ(Ai/Ācontrol×100)]/n
Ai is the absorbance of the ith group of data (I=1, 2 . . . , n), Ācontrol is the average absorbance of the control hole of the drug, and the parallel experiment is more than 3 times.

[3] = tested on: HepG2 cells; test: In vitro cell selectivity test, confocal fluorescence uptake in co-cultured cells, HepG2; type: cell-based; settings: 1 μM, 1 h
Description: (§2) Firstly, HepG2 cells and COS-7 cells are cultured together in a cell culture dish for 24 h, and then 1 μM of 1-1-biotin or 1-1 is added and further incubation for 1 h. After staining, the cells are washed using serum-free medium for three times. Then, 2 mL fresh medium is added, and corresponding fluorescence observation is performed using the laser confocal scanning microscope. The excitation wavelength is 635 nm and the fluorescence receiving channel is 655 nm-755 nm.

[4] = tested on: COS-7 cells; test: In vitro cell selectivity test, confocal fluorescence uptake in co-cultured cells, COS-7; type: cell-based, African green monkey; settings: 1 μM, 1 h, COS-7 co-cultured with HepG2, excitation 635 nm
Description: as §2

[5] = Singlet oxygen production, DPBF absorption attenuation under 660 nm light, methylene blue as reference; type: physicochemical; settings: 5 μM in methanol
Description: Compounds 1-1 and 1-2 synthesized in the embodiment 1 are added to 3 mL methanol solvent with a final concentration of 5 μM. Next, 1, 3-diphenyl isobenzofuran (DPBF) is added, and adjusting the absorbance of DPBF in the solution to about 1.0. Then the ultraviolet absorption curve is measured. According to the changes of the absorbance value of DPBF at 411 nm after each irradiation (660 nm light source), the correlation curve between absorbance and time is drawn. With methylene blue (MB) as reference, the singlet oxygen yield is calculated using the following formula.
(§3) Compounds 1-1 and 1-2 synthesized in the above embodiment 2 are added to 3 mL methanol solvent with a final concentration of 5 μM. Then, the 1,3-diphenyl isobenzofuran (DPBF) is added, and the absorbance of DPBF in the solution is adjusted to about 1.0. Then the ultraviolet absorption curve is measured after each 660 nm red light irradiation. According to the changes of the absorbance value of DPBF at 411 nm, the correlation curve between absorbance and time is drawn. With methylene blue (MB) as reference, the following formula is used to calculate the oxygen yield of its singlet state.
[formula] […] The instruments used are AgIIlent 8453 UV spectrophotometer, and the light source is 300 W xenon lamp.
as §3, with “1-1-IMC” for “1-1”, “2-1-IMC” for “1-2”
as §3, with “1-1-Biotin” for “1-1 and 1-2”

[6] = tested on: COS-7 (African green monkey kidney cells); test: In vitro anticancer test (MTT cell viability), dark and 660 nm light, COS-7; type: cell-based

Compound	maximum absorption wavelength [1]	maximum emission wavelength [1]	killing effect on biotin receptor overexpressing HepG2 cells relative to COS-7 cells ([2]; 660 nm light, HepG2 vs COS-7 with low biotin receptor expression)	phototoxicity (cell killing) ([2]; HepG2, 10 minutes irradiation with 660 nm LED light source, MTT)	dark toxicity (cell survival rate) ([2]; HepG2, no light irradiation, MTT)	cell uptake / targeting (red fluorescence) ([3]; HepG2 co-cultured with COS-7, excitation 635 nm)	cell uptake (red fluorescence) [4]	singlet oxygen yield [5]	phototoxicity (cytotoxicity) ([6]; COS-7, 10 minutes irradiation with 660 nm LED light source)	dark toxicity (cell survival rate) ([6]; COS-7, no light irradiation)	selectivity of uptake for HepG2 over COS-7 cells ([3]; co-culture of HepG2 and COS-7)
CCN(CC)c1ccc2nc3c4ccccc4/c(=N\CCCCCCNC(=O)CCCCC4SC[C@@H]5NC(=O)N[C@H]45)cc-3sc2c1 (some centres unmarked) [1-1-Biotin]	652 nm	681 nm	significantly higher	significant HepG2 cells arr killed	low dark toxicity	can specifically target HepG2 cells	very limited	0.04	only limited cytotoxicity	low dark toxicity	
CCN(CC)c1ccc2nc3c4ccccc4/c(=N\CCCCCCNC(=O)Cc4c(C)n(C(=O)c5ccc(Cl)cc5)c5ccc(OC)cc45)cc-3sc2c1 [1-1-IMC]	654 nm	694 nm						0.04			
CCN(CC)c1ccc2nc3c4ccccc4/c(=N\CCCCCCN)cc-3sc2c1 [1-1]	655 nm	694 nm						0.04			does not have such selectivity
CCN(CC)c1ccc2nc3c4ccccc4/c(=N\CCCCCC(=O)O)cc-3sc2c1 [1-2]	655 nm	694 nm						0.04			
CCN(CC)c1ccc2nc3c4ccccc4/c(=N\CCCCCCNC(=O)Cc4c(C)n(C(=O)c5ccc(Cl)cc5)c5ccc(OC)cc45)cc-3[se]c2c1 [2-1-IMC]	662 nm	703 nm						0.82			
CCN(CC)c1ccc2nc3c4ccccc4/c(=N\CCCCCCN)cc-3[se]c2c1 [2-1]	661 nm	702 nm						0.78			
CCN(CC)c1ccc2nc3c4ccccc4/c(=N\CCCCCC(=O)O)cc-3[se]c2c1 [2-2]	661 nm	702 nm						0.73			
